PubChem BioAssay (NCI)
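Where inhibition never reached the appropriate level, the endpoint shown equals the highest concentration tested. Otherwise, values were interpolated linearly from a five-concentration, 48-hour dose response in 96-well plates. GI50 marks 50% less growth. Definition used: TGI = concentration required for complete inhibition of growth.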

Assays:
Assay in all cases: NCI-60 cell line screen, 48 h
786-0 renal = system: 786-0 renal
A498 renal = system: A498 renal
A549 NSCLC = system: A549 NSCLC
ACHN renal = system: ACHN renal
BT-549 breast = system: BT-549 breast
CAKI-1 renal = system: CAKI-1 renal
CCRF-CEM leukemia = system: CCRF-CEM leukemia
COLO 205 colon = system: COLO 205 colon
DLD-1 colon = system: DLD-1 colon
DMS 114 small cell lung = system: DMS 114 small cell lung
DMS 273 small cell lung = system: DMS 273 small cell lung
EKVX NSCLC = system: EKVX NSCLC
HCC-2998 colon = system: HCC-2998 colon
HCT-116 colon = system: HCT-116 colon
HCT-15 colon = system: HCT-15 colon
HL-60(TB) leukemia = system: HL-60(TB) leukemia
HOP-18 NSCLC = system: HOP-18 NSCLC
HOP-62 NSCLC = system: HOP-62 NSCLC
HOP-92 NSCLC = system: HOP-92 NSCLC
HS 578T breast = system: HS 578T breast
IGROV1 ovarian = system: IGROV1 ovarian
K-562 leukemia = system: K-562 leukemia
KM12 colon = system: KM12 colon
LOX IMVI melanoma = system: LOX IMVI melanoma
LXFL 529 NSCLC = system: LXFL 529 NSCLC
M14 melanoma = system: M14 melanoma
M19-MEL melanoma = system: M19-MEL melanoma
MALME-3M melanoma = system: MALME-3M melanoma
MCF7 breast = system: MCF7 breast
MDA-MB-231 breast = system: MDA-MB-231 breast
MDA-MB-435 = system: MDA-MB-435
MOLT-4 leukemia = system: MOLT-4 leukemia
NCI-H226 lung = system: NCI-H226 lung
NCI-H23 lung = system: NCI-H23 lung
NCI-H460 lung = system: NCI-H460 lung
NCI-H522 lung = system: NCI-H522 lung
NCI/ADR-RES ovarian = system: NCI/ADR-RES ovarian
OVCAR-3 ovarian = system: OVCAR-3 ovarian
OVCAR-4 ovarian = system: OVCAR-4 ovarian
OVCAR-5 ovarian = system: OVCAR-5 ovarian
OVCAR-8 ovarian = system: OVCAR-8 ovarian
PC-3 prostate = system: PC-3 prostate
RPMI-8226 leukemia = system: RPMI-8226 leukemia
RXF 393 renal = system: RXF 393 renal
SF-268 CNS = system: SF-268 CNS
SF-295 CNS = system: SF-295 CNS
SF-539 CNS = system: SF-539 CNS
SK-MEL-2 melanoma = system: SK-MEL-2 melanoma
SK-MEL-28 melanoma = system: SK-MEL-28 melanoma
SK-MEL-5 melanoma = system: SK-MEL-5 melanoma
SK-OV-3 ovarian = system: SK-OV-3 ovarian
SN12C renal = system: SN12C renal
SNB-19 CNS = system: SNB-19 CNS
SNB-75 CNS = system: SNB-75 CNS
SNB-78 CNS = system: SNB-78 CNS
SR leukemia = system: SR leukemia
SW-620 colon = system: SW-620 colon
T-47D breast = system: T-47D breast
TK-10 renal = system: TK-10 renal
U251 CNS = system: U251 CNS
UACC-257 melanoma = system: UACC-257 melanoma
UACC-62 melanoma = system: UACC-62 melanoma
UO-31 renal = system: UO-31 renal
XF 498 CNS = system: XF 498 CNS
HT29 colon = system: HT29 colon
KM20L2 colon = system: KM20L2 colon
RXF-631 renal = system: RXF-631 renal

For `N#CC1=C(N)Oc2c(ccc3cccnc23)C1c1ccccc1` (centres undefined), the TGI (786-0 renal) was > 100 µM, the TGI (A498 renal) was 16.9 µM and the TGI (A549 NSCLC) was > 100 µM. For the same compound, the TGI (ACHN renal) was > 100 µM, the GI50 (BT-549 breast) was 1.73 µM and the TGI (BT-549 breast) was 23.6 µM. The TGI (CAKI-1 renal) was > 100 µM, the TGI (CCRF-CEM leukemia) was 13.4 µM and the TGI (COLO 205 colon) was 13.2 µM. The TGI (DLD-1 colon) was > 100 µM, the TGI (DMS 114 small cell lung) was 7.98 µM and the TGI (DMS 273 small cell lung) was > 100 µM. The TGI (EKVX NSCLC) was > 100 µM, the TGI (HCC-2998 colon) was > 100 µM and the TGI (HCT-116 colon) was 21.3 µM. The TGI (HCT-15 colon) was > 100 µM, the TGI (HL-60(TB) leukemia) was 2.07 µM and the TGI (HOP-18 NSCLC) was > 100 µM. The TGI (HOP-62 NSCLC) was > 22.9 µM, the TGI (HOP-92 NSCLC) was > 83.4 µM and the GI50 (HS 578T breast) was 1.73 µM. For the same compound, the TGI (HS 578T breast) was > 100 µM, the TGI (IGROV1 ovarian) was > 100 µM and the TGI (K-562 leukemia) was > 100 µM. The TGI (KM12 colon) was 17.1 µM, the TGI (LOX IMVI melanoma) was > 100 µM and the TGI (LXFL 529 NSCLC) was > 100 µM. For the same compound, the TGI (M14 melanoma) was > 41.5 µM, the TGI (M19-MEL melanoma) was > 100 µM and the TGI (MALME-3M melanoma) was > 67.5 µM. It also gave a GI50 (MCF7 breast) of 0.406 µM, a TGI (MCF7 breast) of 58.1 µM and a GI50 (MDA-MB-231 breast) of 4.88 µM. The TGI (MDA-MB-231 breast) was > 100 µM, the GI50 (MDA-MB-435) was 0.193 µM and the TGI (MDA-MB-435) was 0.661 µM. For the same compound, the TGI (MOLT-4 leukemia) was 36.9 µM, the GI50 (NCI-H226 lung) was 11.4 µM and the TGI (NCI-H226 lung) was 50.9 µM. The TGI (NCI-H23 lung) was > 28.5 µM, the TGI (NCI-H460 lung) was > 46.3 µM and the GI50 (NCI-H522 lung) was 0.299 µM. The TGI (NCI-H522 lung) was 12.7 µM, the GI50 (NCI/ADR-RES ovarian) was 0.464 µM and the TGI (NCI/ADR-RES ovarian) was 12.4 µM. The TGI (OVCAR-3 ovarian) was 2.95 µM, the TGI (OVCAR-4 ovarian) was 98.9 µM and the TGI (OVCAR-5 ovarian) was > 100 µM. The TGI (OVCAR-8 ovarian) was > 100 µM, the GI50 (PC-3 prostate) was 2.8 µM and the TGI (PC-3 prostate) was > 100 µM. For the same compound, the GI50 (RPMI-8226 leukemia) was 2.37 µM, the TGI (RPMI-8226 leukemia) was 15.1 µM and the TGI (RXF 393 renal) was > 30.7 µM. The TGI (SF-268 CNS) was > 100 µM, the TGI (SF-295 CNS) was > 21.9 µM and the TGI (SF-539 CNS) was 4.87 µM. For the same compound, the TGI (SK-MEL-2 melanoma) was > 27 µM, the TGI (SK-MEL-28 melanoma) was > 75.5 µM and the TGI (SK-MEL-5 melanoma) was 13.9 µM. The TGI (SK-OV-3 ovarian) was > 100 µM, the TGI (SN12C renal) was > 100 µM and the TGI (SNB-19 CNS) was > 74.1 µM. It also gave a TGI (SNB-75 CNS) of 3.5 µM, a TGI (SNB-78 CNS) of 9.36 µM and a TGI (SR leukemia) of 29 µM. The TGI (SW-620 colon) was > 100 µM, the GI50 (T-47D breast) was 1.45 µM and the TGI (T-47D breast) was 65.6 µM. The TGI (TK-10 renal) was 86.8 µM, the TGI (U251 CNS) was 36.2 µM and the TGI (UACC-257 melanoma) was > 79.4 µM. The TGI (UACC-62 melanoma) was 24.6 µM, the TGI (UO-31 renal) was > 100 µM and the TGI (XF 498 CNS) was 77.7 µM.

In the case of `N#CCc1ccccc1/C(C#N)=C1/OC(=N)C(c2ccccc2CC#N)C1=O` (centres undefined), the TGI (786-0 renal) is reported as > 100 µM, the TGI (A549 NSCLC) is reported as > 100 µM and the TGI (ACHN renal) is reported as > 100 µM. The TGI (CAKI-1 renal) was > 100 µM, the TGI (CCRF-CEM leukemia) was > 100 µM and the TGI (DMS 273 small cell lung) was > 100 µM. For the same compound, the TGI (EKVX NSCLC) was > 100 µM, the TGI (HCT-116 colon) was > 100 µM and the TGI (HL-60(TB) leukemia) was > 100 µM. For the same compound, the TGI (HOP-92 NSCLC) was > 100 µM, the TGI (HT29 colon) was > 100 µM and the TGI (IGROV1 ovarian) was > 100 µM. For the same compound, the TGI (K-562 leukemia) was > 100 µM, the TGI (KM12 colon) was > 100 µM and the TGI (KM20L2 colon) was > 100 µM. For the same compound, the TGI (LOX IMVI melanoma) was > 100 µM, the TGI (LXFL 529 NSCLC) was > 100 µM and the TGI (M14 melanoma) was > 100 µM. The TGI (M19-MEL melanoma) was > 100 µM, the TGI (MOLT-4 leukemia) was > 100 µM and the TGI (NCI-H226 lung) was > 100 µM. The TGI (NCI-H522 lung) was > 100 µM, the TGI (OVCAR-3 ovarian) was > 100 µM and the TGI (RPMI-8226 leukemia) was > 100 µM. The TGI (RXF-631 renal) was > 100 µM, the TGI (SF-268 CNS) was > 100 µM and the TGI (SF-295 CNS) was > 100 µM. The TGI (SF-539 CNS) was > 100 µM, the TGI (SK-MEL-28 melanoma) was > 100 µM and the TGI (SK-MEL-5 melanoma) was > 100 µM. The TGI (SK-OV-3 ovarian) was > 100 µM, the TGI (SNB-75 CNS) was > 100 µM and the TGI (SR leukemia) was > 100 µM. For the same compound, the TGI (SW-620 colon) was > 100 µM, the TGI (TK-10 renal) was > 100 µM and the TGI (UACC-257 melanoma) was > 100 µM. For the same compound, the TGI (UACC-62 melanoma) was > 100 µM.

In the case of `O=C(c1nc2ccc(Cl)cc2[nH]c1=O)C(O)c1cccc([N+](=O)[O-])c1` (centres undefined), the TGI (786-0 renal) is reported as > 100 µM, the TGI (A498 renal) is reported as > 100 µM and the TGI (A549 NSCLC) is reported as > 100 µM. For the same compound, the TGI (ACHN renal) was > 100 µM, the TGI (CAKI-1 renal) was > 100 µM and the TGI (CCRF-CEM leukemia) was > 100 µM. For the same compound, the TGI (COLO 205 colon) was > 100 µM, the TGI (DLD-1 colon) was > 100 µM and the TGI (DMS 114 small cell lung) was 17.6 µM. The TGI (DMS 273 small cell lung) was > 100 µM, the TGI (EKVX NSCLC) was > 100 µM and the TGI (HCC-2998 colon) was > 100 µM. For the same compound, the TGI (HCT-116 colon) was > 100 µM, the TGI (HCT-15 colon) was > 100 µM and the TGI (HL-60(TB) leukemia) was 74.1 µM. For the same compound, the TGI (HOP-18 NSCLC) was > 100 µM, the TGI (HOP-62 NSCLC) was > 100 µM and the TGI (HOP-92 NSCLC) was > 100 µM. The TGI (HT29 colon) was 40.4 µM, the TGI (IGROV1 ovarian) was > 100 µM and the TGI (K-562 leukemia) was > 100 µM. For the same compound, the TGI (KM12 colon) was > 100 µM, the TGI (KM20L2 colon) was > 100 µM and the TGI (LOX IMVI melanoma) was 40 µM. The TGI (LXFL 529 NSCLC) was > 100 µM, the TGI (M14 melanoma) was > 100 µM and the TGI (M19-MEL melanoma) was > 100 µM. The TGI (MALME-3M melanoma) was > 100 µM, the TGI (MOLT-4 leukemia) was > 100 µM and the TGI (NCI-H226 lung) was > 100 µM. For the same compound, the TGI (NCI-H23 lung) was > 100 µM, the TGI (NCI-H460 lung) was > 100 µM and the TGI (NCI-H522 lung) was > 100 µM. The TGI (OVCAR-3 ovarian) was > 100 µM, the TGI (OVCAR-4 ovarian) was > 100 µM and the TGI (OVCAR-5 ovarian) was > 100 µM. The TGI (OVCAR-8 ovarian) was > 100 µM, the TGI (RPMI-8226 leukemia) was > 100 µM and the TGI (RXF 393 renal) was > 100 µM. The TGI (SF-268 CNS) was 81.5 µM, the TGI (SF-295 CNS) was > 100 µM and the TGI (SF-539 CNS) was > 100 µM. The TGI (SK-MEL-2 melanoma) was > 100 µM, the TGI (SK-MEL-28 melanoma) was 61.5 µM and the TGI (SK-MEL-5 melanoma) was > 100 µM. For the same compound, the TGI (SK-OV-3 ovarian) was > 100 µM, the TGI (SN12C renal) was > 100 µM and the TGI (SNB-19 CNS) was > 100 µM. For the same compound, the TGI (SNB-75 CNS) was > 100 µM, the TGI (SNB-78 CNS) was > 100 µM and the TGI (SR leukemia) was > 100 µM. For the same compound, the TGI (TK-10 renal) was > 100 µM, the TGI (U251 CNS) was > 100 µM and the TGI (UACC-257 melanoma) was > 100 µM. The TGI (UACC-62 melanoma) was > 100 µM, the TGI (UO-31 renal) was > 100 µM and the TGI (XF 498 CNS) was > 100 µM.
